This note sets out measurements from patent US7807841B2, “Spiro-containing compounds and compositions as modulators of steroid hormone nuclear receptors” (IRM LLC, priority 2005, dated 2010).

Usually IC50 stands for the concentration that gives 50% inhibition. Read a low IC50 as inhibition by little substance.

In this assay the target is T1, Mineralocorticoid Receptor (MR) (Homo sapiens, UniProt P08235).
T1 construct: expressed in transfected cells; host or cells: 293T cells (ATCC)
T1 sequence (P08235 672-984): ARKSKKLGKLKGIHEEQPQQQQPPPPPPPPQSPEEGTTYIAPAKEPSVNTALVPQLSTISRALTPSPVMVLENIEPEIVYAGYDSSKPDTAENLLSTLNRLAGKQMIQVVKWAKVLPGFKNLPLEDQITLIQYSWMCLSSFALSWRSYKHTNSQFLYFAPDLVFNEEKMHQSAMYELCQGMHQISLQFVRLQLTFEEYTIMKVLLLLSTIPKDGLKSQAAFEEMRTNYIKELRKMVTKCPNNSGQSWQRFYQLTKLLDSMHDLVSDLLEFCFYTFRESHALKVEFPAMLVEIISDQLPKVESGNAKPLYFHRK
Description: Functional assay of mineralocorticoid receptor antagonism (Gal4-MR mammalian two hybrid luciferase reporter, 293T cells). It is filed as cell-based. The note with it: antagonism of aldosterone (0.4 nM)-induced MR activity. How it is done:
The MR antagonist activity of the compounds is determined in a mammalian two hybrid reporter system. The N-terminus of MR (MR-NT, sequence coding amino acid 1-597) is fused to the activation domain of the VP16 gene. The ligand binding domain of MR (MR-LBD, sequence encoding amino acid 672-984) is fused to the DNA binding domain of the yeast Gal4 gene. The MR gene is cloned from a human kidney cDNA library with PCR.
The assay is performed in 384 well plates. Briefly, 293T cells (ATCC) are transfected with expression vectors for Gal-4-MR-LBD and VP16-MR NT, and a luciferase reporter vector containing Gal4 binding sequence (pG5-Luc). Cells are plated in 384 well plates immediately after transfection (approximately 3×10^4 cells/well in 50 μl medium). The medium is supplemented with 3% charcoal-dextran treated fetal bovine serum (Hyclone). Twenty four hours after transfection, compounds prepared in DMSO are transferred to the cells. The cells are then stimulated with 0.4 nM final concentration of aldosterone (Acros) and incubated at 37° C. for another 24 hours before the luciferase activity is assayed with 20 μl of Bright-Glo (Promega) using a luminometer (CLIPR). The expression of luciferase is used as an indicator of aldosterone-induced MR trans-activation. Each compound is tested in duplicates with 12-concentration titration. IC50 values (defined as the concentration of test compound required to antagonize 50% of aldosterone-induced MR activity) are determined from the dose-response curve.
(In a reporter assay the amount or activity of a reporter protein is the signal.)
`O=C1CCC2(c3ccc(Br)cc3)OC3(CN12)c1ccccc1C=Cc1ccccc13` (centres unmarked) [FRS-7] registered an IC50 below 100 nM.
With `CC1(C)OC2(CN1C(=O)c1ccccc1)c1ccccc1C=Cc1ccccc12` [SOXS-5] the figure was 100 to 1000 nM; with `COc1ccc(C2=NCC3(O2)c2ccccc2C=Cc2ccccc23)cc1` [OXS-3], 100 to 1000 nM; with `O=C1CCC2(c3ccn(S(=O)(=O)c4ccccc4)c3)OC3(CN12)c1ccccc1C=Cc1ccccc13` (centres unmarked) [FRS-12], 100 to 1000 nM.
`C1=Cc2ccccc2C2(CN=C(c3ccccc3)O2)c2ccccc21` [OXS-2] had a 50% inhibitory concentration (IC50) of 100 to 1000 nM.
